Results: patent US20060148842A1, “Nepetalactams and N-substituted derivatives thereof” (priority 2004, published 2006)

Tested on: Aedes aegypti mosquitoes
Experiment: in vitro Gupta box landing assay (insect repellency)
Settings: 20 min; 1.0% (w/v) in IPA, 25 μL on Baudruche membrane; landings of female Aedes aegypti over 20 min vs IPA control
Method: The products of Examples 1-15 were evaluated for insect repellency against Aedes aegypti mosqutioes in the in vitro Gupta box landing assay. In this method a chamber contained 5 wells, each covered by a Baudruche (animal intestine) membrane. Each well was filled with bovine blood containing sodium citrate (to prevent clotting) and ATP (72 mg ATP disodium salt per 26 ml of blood), and heated to 37° C. A volume of 25 μL of isopropyl alcohol (IPA) containing one test specimen or control was applied to each membrane. The concentrations were 1.0% (w/v) in IPA. The negative control was membrane surface treated with neat IPA, and the positive control was a 1.0% (w/v) solution of DEET.
After 5 min, approximately 250 4-day-old female Aedes aegypti mosquitoes were introduced into the chamber. The number of mosquitoes probing the membranes for each treatment was recorded at 2 min intervals over 20 min. The results obtained in this manner with respect to the compounds of Examples 1˜12 are depicted, respectively, in FIGS. 1-12 (labeled as Examples 16˜27) wherein each datum represents the mean of five replicate experiments.
where C=the total number of landings on the IPA control well, and T=the total number of landings on the test solution well. The % mean repellencies at 1% (w/v) with respect to the compounds of Examples 1˜15 are depicted in Table 2, wherein R refers to the substituent on nepetalactam.

Row | Compound | pest or weed control at 10000 µg/mL [%]
1 | CC1=CN(C(C)C)C(=O)[C@H]2[C@@H]1CC[C@@H]2C [IIIi, (4aS,7S,7aR)-2-n-isopropyl-4,7-dimethyl-2,4a,5,6,7,7a-hexahydro-1H-cyclopenta[c]pyridin-1-one] | 94.7
2 | C#CCN1C=C(C)[C@H]2CC[C@H](C)[C@H]2C1=O [IIIk, (4aS,7S,7aR)-2-n-propargyl-4,7-dimethyl-2,4a,5,6,7,7a-hexahydro-1H-cyclopenta[c]pyridin-1-one] | 95.6
3 | CC1=CN(c2ccccc2)C(=O)[C@H]2[C@@H]1CC[C@@H]2C [Va, (4aS,7S,7aR)-4,7-dimethyl-2-phenyl-2,4a,5,6,7,7a-hexahydro-1H-cyclopenta[c]pyridin-1-one] | 93.1
4 | CCCCCN1C=C(C)[C@H]2CC[C@H](C)[C@H]2C1=O [IIIe, (4aS,7S,7aR)-2-n-pentyl-4,7-dimethyl-2,4a,5,6,7,7a-hexahydro-1H-cyclopenta[c]pyridin-1-one] | 97.5
5 | CCN1C=C(C)[C@H]2CC[C@H](C)[C@H]2C1=O [IIIb, (4aS,7S,7aR)-2-ethyl-4,7-dimethyl-2,4a,5,6,7,7a-hexahydro-1H-cyclopenta[c]pyridin-1-one] | 97.9
6 | CC1=CN(c2ccc(Cl)cc2)C(=O)[C@H]2[C@@H]1CC[C@@H]2C [Vb, (4aS,7S,7aR)-2-(4-chlorophenyl)-4,7-dimethyl-2,4a,5,6,7,7a-hexahydro-1H-cyclopenta[c]pyridin-1-one] | 75.3
7 | CCCCCCN1C=C(C)[C@H]2CC[C@H](C)[C@H]2C1=O [IIIf, (4aS,7S,7aR)-2-n-hexyl-4,7-dimethyl-2,4a,5,6,7,7a-hexahydro-1H-cyclopenta[c]pyridin-1-one] | 97.2
8 | CC1=CNC(=O)[C@H]2[C@@H]1CC[C@@H]2C [II, (4aS,7S,7aR)-4,7-dimethyl-2,4a,5,6,7,7a-hexahydro-1H-cyclopenta [c]pyridin-1-one] | 66
9 | CC1=CN(c2ccc(Br)cc2)C(=O)[C@H]2[C@@H]1CC[C@@H]2C [Vc, (4aS,7S,7aR)-2-(4-bromophenyl)-4,7-dimethyl-2,4a,5,6,7,7a-hexahydro-1H-cyclopenta[c]pyridin-1-one] | 41.5
10 | CCCN1C=C(C)[C@H]2CC[C@H](C)[C@H]2C1=O [IIIc, (4aS,7S,7aR)-2-n-propyl-4,7-dimethyl-2,4a,5,6,7,7a-hexahydro-1H-cyclopenta[c]pyridin-1-one] | 99.8
11 | CCCCCCCCN1C=C(C)[C@H]2CC[C@H](C)[C@H]2C1=O [IIIg, (4aS,7S,7aR)-2-n-octyl-4,7-dimethyl-2,4a,5,6,7,7a-hexahydro-1H-cyclopenta[c]pyridin-1-one] | 93.2
12 | CC1=CN(C2CCCCC2)C(=O)[C@H]2[C@@H]1CC[C@@H]2C [IIIh, (4aS,7S,7aR)-2-n-cyclohexyl-4,7-dimethyl-2,4a,5,6,7,7a-hexahydro-1H-cyclopenta[c]pyridin-1-one] | 98.9
13 | C=CCN1C=C(C)[C@H]2CC[C@H](C)[C@H]2C1=O [IIIj, (4aS,7S,7aR)-2-n-allyl-4,7-dimethyl-2,4a,5,6,7,7a-hexahydro-1H-cyclopenta[c]pyridin-1-one] | 78.1
14 | CC1=CN(C)C(=O)[C@H]2[C@@H]1CC[C@@H]2C [IIIa, (4aS,7S,7aR)-2,4,7-trimethyl-2,4a,5,6,7,7a-hexahydro-1H-cyclopenta[c]pyridin-1-one] | 94.8
15 | CCCCN1C=C(C)[C@H]2CC[C@H](C)[C@H]2C1=O [IIId, (4aS,7S,7aR)-2-n-butyl-4,7-dimethyl-2,4a,5,6,7,7a-hexahydro-1H-cyclopenta[c]pyridin-1-one] | 97.3
